From patent publication US7232690B1, “Method and device for detecting and isolating pharmacological compounds being contained in substance mixtures” (LTS Lohmann Therapie-Systeme AG, priority 1999, dated 2007)

Assays:
β2-adrenoreceptor = β2-adrenoreceptor (Homo sapiens, UniProt P07550); assay: Ultrafiltration target-binding test of extract of taraxacum with β2-adrenoreceptor membrane preparation (Example 3)
Protocol: Substance used for the assays: • a) extr. taraxaci spir. sicc.
In the assays, the extract of taraxacum and the membrane preparation were combined in different stoichiometric ratios, dissolved in 200 μl of binding buffer (150 mM of NaCl, 50 mM of tris, pH 8.2 in water).
The receptor-ligand binding was completed by 30-minute-long incubation of the mixture at 30-34° C. The solutions were then placed on a Microcon 10 centrifugal filter and centrifuged at 9981×g for 15 min or until dryness of the filter. […] After two washing steps with binding buffer, the complexes present on the filter were separated by treatment with 200 μl of TFA (1/49.5/49.5).
The eluates from the following four filtration steps were centrifuged under vacuum until dryness, and the substances obtained were dissolved by means of ultrasound in 10 μl of the mobile phase of the HPLC (cf. Example 1), shortly before LC analysis.

Thrombin = Thrombin (Homo sapiens, UniProt P00734); assay: Thrombin inhibition constant (Ki); assay type: biochemical; settings: read-out: Ki [μmol/l] Thrombin
serine protease trypsin = assay: Ultrafiltration target-binding test of non-equimolar amidinophenylalanine mixture with trypsin (Example 2); settings: applied 6 8.4, 7 41.25, 10 2.5 μmol/l
Protocol: Incubation of the substance library and the inhibitor with thrombin took place at room temperature within 1 hour; solvent: 0.9% of NaCl in H2O. The separation of the protein-ligand complexes formed was accomplished by ultrafiltration (centrifugal). All filtration procedures and washes were carried out until dryness of the filters.
Filter: Microcon 10 (Amicon)
Centrifugation conditions: 9981×g, room temperature
Washing steps: 2×, each with 150 μl of 0.9% NaCl in H2O, 4° C.
Ultrafiltration and analysis of the filtrate were followed by washing steps and the liberation of the ligand (the active chemical substance) from the protein-ligand complex retained on the filter by treatment with 200 μl of water/methanol/TFA (49.5/49.5/1) at room temperature.
The blind sample (without thrombin) was treated analogously in all steps so that a comparison of the filtrates was possible. The filtrates obtained in all steps were dried by means of a speed-VAC concentrator, and later dissolved in the corresponding HPLC flow agent of defined amount applying ultrasound and agitation.
Identification of the ligands was accomplished by analytic HPLC: stationary phase Hypersil C 18 BDS, 3 μm, 150*0.3 mm, Fusica (LC Packings)—mobile phase: acetonitrile/water/TFA (35/65/0.01), isocratic, 5 μL/min, λ=[…].
The trypsin inhibitors of 3-amidinophenylalanine represented in the following by their structural formulae, were used as chemical substances, and the serine protease trypsin as target:
The experiments were performed as described in Example 1.

[1] = Sample 351, no receptor, extract 1.5 mg (7.5 g/l)
[2] = Sample 355, receptor 1.04 pmol (5.2 nmol/l), extract 1.5 pmol (7.5 nmol/l)
[3] = Sample 356, receptor 1.04 pmol (5.2 nmol/l), extract 1.5 pmol (7.5 nmol/l)
[4] = Sample 360, no receptor, extract 0.3 mg (1.5 g/l)
[5] = Sample 361, receptor 1.04 pmol (5.2 nmol/l), extract 0.3 mg (1.5 g/l)
[6] = Sample 362, no receptor, extract 0.6 mg (3 g/l)
[7] = Sample 363, receptor 1.04 pmol (5.2 nmol/l), extract 0.6 mg (3 g/l)
[8] = Sample 364, no receptor, extract 1.0 mg (5.0 g/l)
[9] = Sample 365, receptor 1.04 pmol (5.2 nmol/l), extract 1.0 mg (5.0 g/l)
[10] = Sample 366, receptor 1.04 pmol (5.2 nmol/l), extract 1.5 mg (7.5 g/l)
[11] = Sample 367, receptor 1.04 pmol (5.2 nmol/l), extract 1.5 mg (7.5 g/l)
[12] = Sample 369, receptor 1.04 pmol (5.2 nmol/l), extract 1.5 mg (7.5 g/l)
[13] = Sample 373, receptor 1.04 pmol (5.2 nmol/l), extract 1.5 mg (7.5 g/l)
[14] = Sample 374, receptor 0.52 pmol (2.6 nmol/l), extract 1.5 mg (7.5 g/l)
[15] = Sample 375, receptor 0.26 pmol (1.3 nmol/l), extract 1.5 mg (7.5 g/l)

Sequence of β2-adrenoreceptor (P07550 whole entry): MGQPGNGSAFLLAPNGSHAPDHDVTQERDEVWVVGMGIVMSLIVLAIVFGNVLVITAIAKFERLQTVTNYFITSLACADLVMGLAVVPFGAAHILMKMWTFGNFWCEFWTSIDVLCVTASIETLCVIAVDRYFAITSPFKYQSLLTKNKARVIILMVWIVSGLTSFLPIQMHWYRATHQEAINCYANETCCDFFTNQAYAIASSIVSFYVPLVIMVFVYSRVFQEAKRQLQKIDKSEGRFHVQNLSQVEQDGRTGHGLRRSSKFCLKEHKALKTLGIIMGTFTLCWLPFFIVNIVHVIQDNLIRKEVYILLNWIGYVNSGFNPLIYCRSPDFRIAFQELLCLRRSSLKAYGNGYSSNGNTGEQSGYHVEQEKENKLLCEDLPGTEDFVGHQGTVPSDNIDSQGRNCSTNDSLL

Compound: COc1cc(/C=C/C(=O)OC(C(=O)O)C(OC(=O)/C=C/c2ccc(O)c(OC)c2)C(=O)O)ccc1O (stereo not drawn) [Substance L7, trans-diferoyl-tartaric acid ester]
- 1st Wash (β2-adrenoreceptor; [1]): 748.2 nmol/L
- 2nd Wash (β2-adrenoreceptor; [1]): 145.5 nmol/L
- Filtrate (β2-adrenoreceptor; [1]): 3802.1 nmol/L
- Liberation (β2-adrenoreceptor; [1]): 22.7 nmol/L
- 1st Wash (β2-adrenoreceptor; [2]): 909.9 nmol/L
- 2nd Wash (β2-adrenoreceptor; [2]): 180.4 nmol/L
- Filtrate (β2-adrenoreceptor; [2]): 1539.6 nmol/L
- Liberation (β2-adrenoreceptor; [2]): 214.5 nmol/L
- 1st Wash (β2-adrenoreceptor; [3]): 1117.4 nmol/L
- 2nd Wash (β2-adrenoreceptor; [3]): 295.9 nmol/L
- Filtrate (β2-adrenoreceptor; [3]): 2183.1 nmol/L
- Liberation (β2-adrenoreceptor; [3]): 510.7 nmol/L
- 1st Wash (β2-adrenoreceptor; [4]): 129.6 nmol/L
- 2nd Wash (β2-adrenoreceptor; [4]): 6.6 nmol/L
- Filtrate (β2-adrenoreceptor; [4]): 1268.8 nmol/L
- Liberation (β2-adrenoreceptor; [4]): 8.6 nmol/L
- 1st Wash (β2-adrenoreceptor; [5]): 129.6 nmol/L
- 2nd Wash (β2-adrenoreceptor; [5]): 6.6 nmol/L
- Filtrate (β2-adrenoreceptor; [5]): 1268.8 nmol/L
- Liberation (β2-adrenoreceptor; [5]): 8.6 nmol/L
- 1st Wash (β2-adrenoreceptor; [6]): 176.5 nmol/L
- 2nd Wash (β2-adrenoreceptor; [6]): 33.7 nmol/L
- Filtrate (β2-adrenoreceptor; [6]): 1423.2 nmol/L
- Liberation (β2-adrenoreceptor; [6]): 7.5 nmol/L
- 1st Wash (β2-adrenoreceptor; [7]): 76.4 nmol/L
- 2nd Wash (β2-adrenoreceptor; [7]): 104.2 nmol/L
- Filtrate (β2-adrenoreceptor; [7]): 1740.7 nmol/L
- Liberation (β2-adrenoreceptor; [7]): 16.9 nmol/L
- 1st Wash (β2-adrenoreceptor; [8]): 92.7 nmol/L
- 2nd Wash (β2-adrenoreceptor; [8]): 30.1 nmol/L
- Filtrate (β2-adrenoreceptor; [8]): 1829.6 nmol/L
- Liberation (β2-adrenoreceptor; [8]): 89.6 nmol/L
- 1st Wash (β2-adrenoreceptor; [9]): 74.0 nmol/L
- 2nd Wash (β2-adrenoreceptor; [9]): 11.2 nmol/L
- Filtrate (β2-adrenoreceptor; [9]): 2746.8 nmol/L
- Liberation (β2-adrenoreceptor; [9]): 111.9 nmol/L
- 1st Wash (β2-adrenoreceptor; [10]): 1425.3 nmol/L
- 2nd Wash (β2-adrenoreceptor; [10]): 213.1 nmol/L
- Filtrate (β2-adrenoreceptor; [10]): 4261.6 nmol/L
- Liberation (β2-adrenoreceptor; [10]): 168.2 nmol/L
- 1st Wash (β2-adrenoreceptor; [11]): 1509.0 nmol/L
- 2nd Wash (β2-adrenoreceptor; [11]): 199.2 nmol/L
- Filtrate (β2-adrenoreceptor; [11]): 6243.7 nmol/L
- Liberation (β2-adrenoreceptor; [11]): 232.9 nmol/L
- 1st Wash (β2-adrenoreceptor; [12]): 986.8 nmol/L
- 2nd Wash (β2-adrenoreceptor; [12]): 221.7 nmol/L
- Filtrate (β2-adrenoreceptor; [12]): 3505.8 nmol/L
- Liberation (β2-adrenoreceptor; [12]): 378.7 nmol/L
- 1st Wash (β2-adrenoreceptor; [13]): 1176.5 nmol/L
- 2nd Wash (β2-adrenoreceptor; [13]): 285.4 nmol/L
- Filtrate (β2-adrenoreceptor; [13]): 4900.2 nmol/L
- Liberation (β2-adrenoreceptor; [13]): 847.8 nmol/L
- 1st Wash (β2-adrenoreceptor; [14]): 627.7 nmol/L
- 2nd Wash (β2-adrenoreceptor; [14]): 200.9 nmol/L
- Filtrate (β2-adrenoreceptor; [14]): 5661.6 nmol/L
- Liberation (β2-adrenoreceptor; [14]): 538.8 nmol/L
- 1st Wash (β2-adrenoreceptor; [15]): 631.3 nmol/L
- 2nd Wash (β2-adrenoreceptor; [15]): 112.3 nmol/L
- Filtrate (β2-adrenoreceptor; [15]): 4921.4 nmol/L
- Liberation (β2-adrenoreceptor; [15]): 154.4 nmol/L

Compound: N=C(N)c1cccc(CC(NS(=O)(=O)c2ccc3ccccc3c2)C(=O)N2CCCCC2)c1 (stereo not drawn) [Substance 7]
- Ki (Thrombin): 0.065 µmol/L
- 1st Wash (serine protease trypsin; Sample 261, without trypsin): 3.13 µmol/L
- 2nd Wash (serine protease trypsin; Sample 261, without trypsin): 0.26 µmol/L
- Filtrate (serine protease trypsin; Sample 261, without trypsin): 31.57 µmol/L
- Liberation (serine protease trypsin; Sample 261, without trypsin): 0.13 µmol/L
- 1st Wash (serine protease trypsin; Sample 262, trypsin 50 μmol/l): 3.68 µmol/L
- 2nd Wash (serine protease trypsin; Sample 262, trypsin 50 μmol/l): 1.29 µmol/L
- Filtrate (serine protease trypsin; Sample 262, trypsin 50 μmol/l): 22.22 µmol/L
- Liberation (serine protease trypsin; Sample 262, trypsin 50 μmol/l): 8.49 µmol/L
